According to patent publication US20240424113A1, “CONJUGATES COMPRISING ANTIFUNGALS AND HEAT SHOCK PROTEIN 90 (HSP90) INHIBITORS AND METHODS OF USE THEREOF” (Bright Angel Therapeutics Inc., priority 2021, published 2024):
In brackets after ≈: the same amount, converted by molar mass.

Experiments:
[1] = target: Hsp90 Nuclear Binding Domain (NBD) (Aspergillus fumigatus, UniProt P40292); assay: Surface Plasmon Resonance (SPR) binding, A. fumigatus Hsp90 NBD; settings: biotinylated Hsp90 NBD on streptavidin chip, 25° C., 1:1 binding model; NB undefined
Method in brief: (§1)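 Biacore S200 at 25° C; AviTag-biotinylated recombinant Hsp90 NBD captured on streptavidin chip at 2000-2500 RU. Compound dilution series run in HBS-P pH 7.4 with 2% DMSO at 40 μL/min, 60 s association and 600 s dissociation. Sensorgrams fitted to a 1:1 binding model.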

[2] = target: Hsp90 Nuclear Binding Domain (NBD) (Candida albicans (strain SC5314 / ATCC MYA-2876) (Yeast), UniProt P46598); assay: Surface Plasmon Resonance (SPR) binding, C. albicans Hsp90 NBD; settings: biotinylated Hsp90 NBD on streptavidin chip, 25° C., 1:1 binding model
Method in brief: as §1

HepG2 cells = assay: Mammalian cell toxicity (Cell Titer-Glo); assay type: cell-based
Description: Mammalian Cell Toxicity. HepG2 cells were seeded overnight at 500 cells/well in 384-well plate, then incubated with compounds (10-point concentration titration) for 48 h. Cell Titer-Glo® reagent ([…]) was added to each well and after 10-minute incubation at room temperature the luminescent signal was measured using an Envision plate reader (Perkin Elmer).

CaCl2 = assay: Antifungal sensitivity testing (broth microdilution MIC); assay type: cell-based; settings: 96-well broth microdilution
Method in brief: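 Broth microdilution MIC per a modified published protocol; compounds dissolved in DMSO, fluconazole in water; duplicates in at least two independent experiments. Fungicidal activity checked by spotting MIC-plate cultures onto YPD agar, read after 24 h at 30° C.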

Chain of Hsp90 Nuclear Binding Domain (NBD) (Aspergillus fumigatus, UniProt P40292) (P40292 whole entry, looked up, the tested form may be a part): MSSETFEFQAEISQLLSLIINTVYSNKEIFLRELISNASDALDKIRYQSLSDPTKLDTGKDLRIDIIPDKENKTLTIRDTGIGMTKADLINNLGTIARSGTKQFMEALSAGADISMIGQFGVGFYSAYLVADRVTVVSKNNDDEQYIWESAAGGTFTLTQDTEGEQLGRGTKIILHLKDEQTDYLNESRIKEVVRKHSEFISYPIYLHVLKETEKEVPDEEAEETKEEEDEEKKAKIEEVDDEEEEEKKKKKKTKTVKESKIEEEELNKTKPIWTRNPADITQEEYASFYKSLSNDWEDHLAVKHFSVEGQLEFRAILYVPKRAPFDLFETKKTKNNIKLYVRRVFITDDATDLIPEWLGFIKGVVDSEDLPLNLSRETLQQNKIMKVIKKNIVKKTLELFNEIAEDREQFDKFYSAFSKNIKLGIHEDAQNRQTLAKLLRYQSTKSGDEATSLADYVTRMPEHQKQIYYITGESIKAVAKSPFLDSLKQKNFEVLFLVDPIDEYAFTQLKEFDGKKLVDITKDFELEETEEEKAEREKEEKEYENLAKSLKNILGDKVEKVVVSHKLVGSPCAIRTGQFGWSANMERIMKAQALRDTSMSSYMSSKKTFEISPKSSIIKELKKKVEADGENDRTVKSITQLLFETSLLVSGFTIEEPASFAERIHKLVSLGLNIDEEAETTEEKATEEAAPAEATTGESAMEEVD
Chain of Hsp90 Nuclear Binding Domain (NBD) (Candida albicans (strain SC5314 / ATCC MYA-2876) (Yeast), UniProt P46598) (P46598 1-218 limits assumed): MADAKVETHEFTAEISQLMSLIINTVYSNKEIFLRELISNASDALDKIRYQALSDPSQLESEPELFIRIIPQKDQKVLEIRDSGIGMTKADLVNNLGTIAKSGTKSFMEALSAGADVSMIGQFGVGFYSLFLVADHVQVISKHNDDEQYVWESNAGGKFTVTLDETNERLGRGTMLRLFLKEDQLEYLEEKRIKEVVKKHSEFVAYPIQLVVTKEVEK

| SMILES | Kd [1] | Kd [2] | HepG2 MIC50 (HepG2 cells; Table 6, 48 h incubation) | MIC50 (CaCl2; Table 4) | MIC50 (CaCl2; Table 6) | HepG2 MIC50 (HepG2 cells; Table 5, 48 h incubation) |
| --- | --- | --- | --- | --- | --- | --- |
| Nc1nc2sc(CNC3CCN(CCC(O)(Cn4cncn4)c4ccc(F)cc4F)CC3)cc2n(-c2ccc3c(c2)N(c2ccccc2)CCO3)c1=O (centres unmarked) [Compound I-72, 3-amino-6-(((1-(3-(2,4-difluorophenyl)-3-hydroxy-4-(1H-1,2,4-triazol-1-yl)butyl)piperidin-4-yl)amino)methyl)-1-(4-phenyl-3,4-dihydro-2H-benzo[b][1,4]oxazin-6-yl)thieno[2,3-b]pyrazin-2(1H)-one] | 197 nM | 121 nM | 4.6 µM | 7.5 µM (≈ 5.55 µg/mL) | 7.5 µM (≈ 5.55 µg/mL) | – |
| CC(F)(F)COC(=O)N1Cc2nc(N)nc(-c3c(Cl)cc(Cl)cc3OCCC(O)(Cn3cncn3)c3ccc(F)cc3F)c2C1 (centres unmarked) [Compound I-115, 2,2-difluoropropyl-2-amino-4-(2,4-dichloro-6-(3-(2,4-difluorophenyl)-3-hydroxy-4-(1H-1,2,4-triazol-1-yl)butoxy)phenyl)-5,7-dihydro-6H-pyrrolo[3,4-d]pyrimidine-6-carboxylate] | 1170 nM | 1200 nM | >20 µM | 6.5 µM (≈ 4.36 µg/mL) | 6.5 µM (≈ 4.36 µg/mL) | – |
| Nc1nc2sc(CNC3CCN(CCCCCC(O)(Cn4cncn4)c4ccc(F)cc4F)CC3)cc2n(-c2ccc3c(c2)N(c2ccccc2)CCO3)c1=O (centres unmarked) [Compound I-118, 3-amino-6-(((1-(6-(2,4-difluorophenyl)-6-hydroxy-7-(1H-1,2,4-triazol-1-yl)heptyl)piperidin-4-yl)amino)methyl)-1-(4-phenyl-3,4-dihydro-2H-benzo[b][1,4]oxazin-6-yl)thieno[2,3-b]pyrazin-2(1H)-one] | 406 nM | 191 nM | 3 µM | 2 µM (≈ 1.56 µg/mL) | 2 µM (≈ 1.56 µg/mL) | 3 µM |
| Nc1nc2sc(CNCC3CCN(C[C@@](O)(Cn4cncn4)c4ccc(F)cc4F)CC3)cc2n(-c2ccc3c(c2)N(c2ccccc2)CCO3)c1=O [Compound I-122, (R)-3-amino-6-((((1-(2-(2,4-difluorophenyl)-2-hydroxy-3-(1H-1,2,4-triazol-1-yl)propyl)piperidin-4-yl)methyl)amino)methyl)-1-(4-phenyl-3,4-dihydro-2H-benzo[b][1,4]oxazin-6-yl)thieno[2,3-b]pyrazin-2(1H)-one] | 1900 nM | 1630 nM | 14.3 µM | 6.5 µM (≈ 4.81 µg/mL) | 6.5 µM (≈ 4.81 µg/mL) | – |
| Nc1nc2sc(CN[C@H]3CCCN(C[C@](O)(Cn4cncn4)c4ccc(F)cc4F)C3)cc2n(-c2ccc3c(c2)N(c2ccccc2)CCO3)c1=O [Compound I-130, 3-amino-6-((((S)-1-((S)-2-(2,4-difluorophenyl)-2-hydroxy-3-(1H-1,2,4-triazol-1-yl)propyl)piperidin-3-yl)amino)methyl)-1-(4-phenyl-3,4-dihydro-2H-benzo[b][1,4]oxazin-6-yl)thieno[2,3-b]pyrazin-2(1H)-one] | 2190 nM | 1580 nM | >20 µM | 1.75 µM (≈ 1.27 µg/mL) | 1.75 µM (≈ 1.27 µg/mL) | >20 µM |
| Nc1nc2sc(CNC3CCN(CC[C@@](O)(Cn4cncn4)c4ccc(F)cc4F)CC3)cc2n(-c2ccc3c(c2)N(c2ccccc2)CCO3)c1=O [Compound I-133, (S)-3-amino-6-(((1-(3-(2,4-difluorophenyl)-3-hydroxy-4-(1H-1,2,4-triazol-1-yl)butyl)piperidin-4-yl)amino)methyl)-1-(4-phenyl-3,4-dihydro-2H-benzo[b][1,4]oxazin-6-yl)thieno[2,3-b]pyrazin-2(1H)-one] | 620 nM | 300 nM | 16.8 µM | 2.13 µM (≈ 1.58 µg/mL) | 2.13 µM (≈ 1.58 µg/mL) | – |
| Nc1nc2sc(CN3CCC(NCC(O)(Cn4cncn4)c4ccc(F)cc4F)CC3)cc2n(-c2ccc3c(c2)N(c2ccccc2)CCO3)c1=O (centres unmarked) [Compound I-134, 3-amino-6-((4-((2-(2,4-difluorophenyl)-2-hydroxy-3-(1H-1,2,4-triazol-1-yl)propyl)amino)piperidin-1-yl)methyl)-1-(4-phenyl-3,4-dihydro-2H-benzo[b][1,4]oxazin-6-yl)thieno[2,3-b]pyrazin-2(1H)-one] | 1050 nM | 665 nM | 15 µM | 3.13 µM (≈ 2.27 µg/mL) | 3.13 µM (≈ 2.27 µg/mL) | – |
| Nc1nc2sc(CNC3CCN(CC(=O)OCCC(O)(Cn4cncn4)c4ccc(F)cc4F)CC3)cc2n(-c2ccc3c(c2)N(c2ccccc2)CCO3)c1=O (centres unmarked) [Compound I-136, 3-(2,4-difluorophenyl)-3-hydroxy-4-(1H-1,2,4-triazol-1-yl)butyl 2-(4-(((3-amino-2-oxo-1-(4-phenyl-3,4-dihydro-2H-benzo[b][1,4]oxazin-6-yl)-1,2-dihydrothieno[2,3-b]pyrazin-6-yl)methyl)amino)piperidin-1-yl)acetate] | 529 nM | 271 nM | 19.4 µM | 6.25 µM (≈ 4.99 µg/mL) | 6.25 µM (≈ 4.99 µg/mL) | – |
| CC1CC(NCc2cc3c(nc(N)c(=O)n3-c3ccc4c(c3)N(c3ccccc3)CCO4)s2)CCN1CC(O)(Cn1cncn1)c1ccc(F)cc1F (centres unmarked) [Compound I-138, 3-amino-6-(((1-(2-(2,4-difluorophenyl)-2-hydroxy-3-(1H-1,2,4-triazol-1-yl)propyl)-2-methylpiperidin-4-yl)amino)methyl)-1-(4-phenyl-3,4-dihydro-2H-benzo[b][1,4]oxazin-6-yl)thieno[2,3-b]pyrazin-2(1H)-one] | 674 nM | 445 nM | 7.9 µM | 2.3 µM (≈ 1.7 µg/mL) | 2.3 µM (≈ 1.7 µg/mL) | – |
| Nc1nc2sc(CNC3CCN(CC(O)(Cn4ccnc4)c4ccc(F)cc4F)CC3)cc2n(-c2ccc3c(c2)N(c2ccccc2)CCO3)c1=O (centres unmarked) [Compound I-139, 3-amino-6-(((1-(2-(2,4-difluorophenyl)-2-hydroxy-3-(1H-imidazol-1-yl)propyl)piperidin-4-yl)amino)methyl)-1-(4-phenyl-3,4-dihydro-2H-benzo[b][1,4]oxazin-6-yl)thieno[2,3-b]pyrazin-2(1H)-one] | 246 nM | 151 nM | 3.9 µM | 1.2 µM (≈ 0.87 µg/mL) | 1.2 µM (≈ 0.87 µg/mL) | 3.9 µM |
